# Experiments:
# [1] = target: T1, human sputum leucocyte elastase (Homo sapiens, UniProt P08246); experiment: In vivo inhibitory activity: model of acute hemorrhagic edema in hamsters; set-up: It is a glycoprotein of 25 to 30 kDa formed from 218 amino acids; from tissue; host or cells: human sputum (purified preparation); settings: hamster, 10 μg intratracheally 3 hours before elastase (50 units); hemoglobin in broncho-alveolar washing 3 hours after elastase
# T1 sequence (P08246 30-247 limits assumed): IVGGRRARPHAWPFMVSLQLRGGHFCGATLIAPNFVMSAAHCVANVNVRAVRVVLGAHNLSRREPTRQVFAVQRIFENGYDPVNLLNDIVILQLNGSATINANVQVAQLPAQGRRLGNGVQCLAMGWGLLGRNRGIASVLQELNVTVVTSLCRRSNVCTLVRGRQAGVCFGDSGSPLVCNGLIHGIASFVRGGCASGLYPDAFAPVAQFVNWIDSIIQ
# Method: In vivo inhibitory activity: model of acute hemorrhagic edema in hamsters
# Tracheal instillation in hamsters of a purified preparation of human sputum leucocyte elastase leads to acute hemorrhaging which can be quantified by measuring the concentration of hemoglobin in the broncho-alveolar washing 3 hours after the elastase instillation.
# The study is carried out on male hamsters weighing […] (Syrian Golden, n=10 per batch). The animals are anesthetized with pentobarbital at a dose of 40 mg/kg intraperitoneally.
# The hamsters are anesthetized and the trachea is exposed surgically. The products to be tested are administered with the aid of a needle directly into the trachea in a volume of 0.1 ml at a dose of 10 μg. Human sputum leucocyte elastase is administered, 3 hours after administration of the product, intratracheally at a dose of 50 units per animal at a volume of 0.2 ml.
# The animals are sacrificed with the aid of a lethal dose of pentobarbital 3 hours after instillation of elastase and a broncho-alveolar washing with physiological serum is carried out. The degree of hemorrhaging is quantified by a colorimetric method which makes it possible to quantitatively determine the hemoglobin concentration (Boehringer hemoglobin test combination).
# The results are expressed in percentage of inhibition of hemorrhaging.
# [2] = target: T1, human sputum leucocyte elastase; experiment: Inhibitory activity for human leucocyte elastase in vitro; type: biochemical; set-up: It is a glycoprotein of 25 to 30 kDa formed from 218 amino acids; purchased Elastin Products Co; host or cells: human sputum (natural enzyme); settings: methoxysuccinyl-Ala-Ala-Pro-Val paranitroanilide substrate, 15 min incubation, 37° C., pH 7.8
# Method: This activity is measured by following the kinetics of hydrolysis of the substrate which leads to the release of paranitroaniline which absorbs at a wavelength of 410 nm.
# Enzyme: Human sputum leucocyte elastase (Elastin Products Co.) solubilized at 1000 uI/ml of distilled water, and frozen in aliquots of 50 μl at -20° C.
# Substrate: methoxysuccinyl-L-alanyl-L-alanyl-propyl-valine paranitroanilide (Sigma chimie).
# Buffer: Tris 0.1M; NaCl 0.5M; pH=7.8.
# 10 μl of the product to be tested or of the solvent (concentrated×100)
# 10 μl of human sputum leucocyte elastase diluted to 1/10th
# Stirring and incubation for 15 min at 37° C.
# The reaction is started by addition of 10 μl of substrate.
# The cell is introduced into the spectro- photometer, and the optical density is recorded as a function of time at 410 nm at 37° C.
# The initial rate is measured for each product concentration (or solvent control) studied.
# Percentages of inhibition with respect to the solvent control are calculated:
# Percentage of inhibition=100×(control rate-rate of the product
# The inhibitory concentrations 50 (IC50) are calculated from the percentages of inhibition by simple linear regression.
Compound,Inhibition (%) of hemorrhaging [1] [%],IC50 [2] [nM]
"CCOCC(O)COc1cc(C(=O)NS(=O)(=O)c2ccc(C(=O)N[C@H](C(=O)N3[C@H](C(=O)NC(C(=O)C(F)(F)F)C(C)C)C[C@@H]4CCCC[C@@H]43)C(C)C)cc2)ccc1OC (stereo partly drawn) [Example 35, 4-{[4-Methoxy-3-(3-ethoxy-2-hydroxypropoxy)-benzoyl]aminosulfonyl}benzoyl-(S)-Val-(2S,3aS,7aS)-Phi-(R,S)-Val-CF3]",47,37
"CC(C)C(NC(=O)[C@@H]1[C@@H]2CC[C@@H](C2)N1C(=O)[C@@H](NC(=O)c1ccc(C(=O)NS(=O)(=O)c2ccc(Cl)cc2)cc1)C(C)C)C(=O)C(F)(F)F (stereo partly drawn) [Example 22, 4-(4-Chlorophenylsulfonylaminocarbonyl)benzoyl-(S)-Val-(1S,3S,4R)-Abh-(R,S)-Val-CF3]",65,19
"CC(C)C(NC(=O)[C@@H]1C[C@@H]2CCCC[C@@H]2N1C(=O)[C@@H](NC(=O)c1ccc(S(=O)(=O)NC(=O)c2ccc(CCN3CCC4(CC3)CNC(=O)O4)cc2)cc1)C(C)C)C(=O)C(F)(F)F (stereo partly drawn) [Example 32, 4-{4-[2-(1-Oxa-2-oxo-3,8-diazaspiro[4.5]dec-8-yl)ethyl]benzoylaminosulfonyl}benzoyl-(S)-Val-(2S,3aS,7aS)-Phi-(R,S)-Val-CF3]",42,42
"CC(C)C(NC(=O)[C@@H]1C[C@@H]2CCCC[C@@H]2N1C(=O)[C@@H](NC(=O)c1ccc(S(=O)(=O)NC(=O)Nc2ccc(Cl)cc2)cc1)C(C)C)C(=O)C(F)(F)F (stereo partly drawn) [Example 26, 4-(4-Chlorophenylureidosulfonyl)benzoyl-(S)-Val-(2S,3aS,7aS)-Phi-(R,S)-Val-CF3]",64,31
"CC(C)C(NC(=O)[C@@H]1C[C@@H]2CCCC[C@@H]2N1C(=O)[C@H](CCCCNC(=O)Cc1cc(C(C)(C)C)c(O)c(C(C)(C)C)c1)NC(=O)c1ccc(C(=O)NS(=O)(=O)c2ccc(Cl)cc2)cc1)C(=O)C(F)(F)F (stereo partly drawn) [Example 41, 4-(4-Chlorophenylsulfonylaminocarbonyl)benzoyl-[N-(3,5-di-tert-butyl-4-hydroxyphenyl)acetyl]-(S)-Lys-(2S,3aS,7aS)-Phi-(R,S)-Val-CF3]",41,70
"CC(C)C(NC(=O)c1ccc(S(=O)(=O)NC(=O)C23CC4CC(CC(C4)C2)C3)cc1)C(=O)N1C2CCC(CC2)C1C(=O)NC(C(=O)C(F)(F)F)C(C)C [Example 28, 4-[(Adamant-1-yl)carbonylaminosulfonyl]benzoyl-(S)-Val-(S)-Abo-(R,S)-Val-CF3]",57,47
"CC(C)C(NC(=O)[C@@H]1C[C@@H]2CCCC[C@@H]2N1C(=O)[C@@H](NC(=O)c1ccc(S(=O)(=O)NC(=O)Cc2cc(C(C)(C)C)c(O)c(C(C)(C)C)c2)cc1)C(C)C)C(=O)C(F)(F)F (stereo partly drawn) [Example 29, 4-[(3,5-Di-tert-butyl-4-hydroxybenzyl)carbonylaminosulfonyl]benzoyl-(S)-Val-(2S,3aS,7aS)-Phi-(R,S)-Val-CF3]",63,38
"CC(C)C(NC(=O)[C@@H]1C2CCC(CC2)N1C(=O)[C@@H](NC(=O)c1ccc(C(=O)NS(=O)(=O)c2ccc(Cl)cc2)cc1)C(C)C)C(=O)C(F)(F)F (single isomer, unassigned) [Example 4]",70,15
"4-{[3-(3-Azabicyclo[3.3.0]octane)ureido]sulpfonyl}benzoyl-(S)-Val-(S)-Abo-(R,S)-Val-CF3 [Example 2]",57,25
"CC(=O)N[C@@H](CSC(C)(C)C)C(=O)NS(=O)(=O)c1ccc(C(=O)N[C@H](C(=O)N2C3CCC(CC3)[C@H]2C(=O)NC(C(=O)C(F)(F)F)C(C)C)C(C)C)cc1 (stereo partly drawn) [Example 18, 4-[S-tert-Butyl-N-acetyl-(S)-cysteinylaminosulfonyl]benzoyl-(S)-Val-(S)-Abo-(R,S)-Val-CF3]",38,19
"CC(C)C(NC(=O)[C@@H]1C2CCC(CC2)N1C(=O)[C@@H](NC(=O)c1ccc(S(=O)(=O)NC(=O)C(C2CC2)C2CC2)cc1)C(C)C)C(=O)C(F)(F)F (stereo partly drawn) [Example 24, 4-[(Dicyclopropylmethyl)carbonylaminosulfonyl]benzoyl-(S)-Val-(S)-Abo-(R,S)-Val-CF3]",46,25
"CC(C)C(NC(=O)c1ccc(S(=O)(=O)NC(=O)Nc2ccc(Cl)cc2)cc1)C(=O)N1C2CCC(CC2)C1C(=O)NC(C(=O)C(F)(F)F)C(C)C [Example 25, 4-(4-Chlorophenylureidosulfonyl)benzoyl-(S)-Val-(S)-Abo-(R,S)-Val-CF3]",63,34
"CC(C)C(NC(=O)[C@@H]1C[C@@H]2CCCC[C@@H]2N1C(=O)[C@@H](NC(=O)c1ccc(S(=O)(=O)NC(=O)C(C2CC2)C2CC2)cc1)C(C)C)C(=O)C(F)(F)F (stereo partly drawn) [Example 27, 4-[(Dicyclopropylmethyl)carbonylaminosulfonyl]benzoyl-(S)-Val-(2S,3aS,7aS)-Phi-(R,S)-Val-CF3]",38,29
"CC(C)C(NC(=O)[C@@H]1[C@@H]2CC[C@@H](C2)N1C(=O)[C@@H](NC(=O)c1ccc(S(=O)(=O)NC(=O)c2ccccc2C(=O)N2CCSC2)cc1)C(C)C)C(=O)C(F)(F)F (stereo partly drawn) [Example 23, 4-[2-[(1,3-Thiazolidin-3-yl)carbonyl]benzoylaminosulfonyl]benzoyl-(S)-Val-(lS,3S,4R)-Abh-(R,S)-Val-CF3]",61,30

# From US5565429A, “Peptides derived from trifluoromethylketones” (Adir et Compagnie, priority 1992, dated 1996)
